Measured values: ChEMBL document CHEMBL3832761, “MMV Pathogen Box Bioactivity Data” (2017)

Columns and labels:
MRC5 = experiment: MRC5 CC50 (uM) Cytotoxicity; assay type: functional; settings: Homo sapiens
Trypanosoma brucei [1] = experiment: AntiTrypanosoma brucei activity T. b. brucei IC50 (uM); assay type: functional, organism-based
Trypanosoma cruzi = experiment: AntiTrypanosoma cruzi activity IC50 (uM); assay type: functional, organism-based
Trypanosoma brucei [2] = experiment: AntiTrypanosoma brucei activity T. b. rhodesiense IC50 (uM); assay type: functional, organism-based
[3] = PMM CC50 (uM) Cytotoxicity; assay type: functional; settings: Macrophage
Leishmania infantum = experiment: AntiLeishmania activity L. infantum (macrophages) IC50 (uM); assay type: functional, organism-based
HepG2 [4] = experiment: Cytotoxicity data HepG2 CC20 (uM); assay type: functional
Plasmodium falciparum [5] = experiment: Antimalarial activity: Asexual Blood Stage Plasmodium falciparum 3D7 IC50 (uM); assay type: functional, organism-based
Plasmodium berghei = experiment: Antimalarial activity: Liver Stage Plasmodium berghei sporozoite Luciferase assay: inhibition at 10 uM (%); assay type: functional
Plasmodium falciparum [6] = experiment: Antimalarial activity: Gametocytes Plasmodium falciparum NF54 Gametocytes Stage V: inhibition at 10 uM (%); assay type: functional
Plasmodium falciparum [7] = experiment: Antimalarial activity: Asexual Blood Stage Plasmodium falciparum W2 IC50 (uM); assay type: functional, organism-based
HepG2 [8] = experiment: HepG2 inhibition at 10 uM (%) Cytotoxicity; assay type: functional; settings: Homo sapiens
Plasmodium falciparum [9] = experiment: Antimalarial activity: Asexual Blood Stage Plasmodium falciparum Dd2 IC50 (uM); assay type: functional, organism-based

Row | SMILES | CC50 (MRC5) | IC50 (Trypanosoma brucei [1]) | IC50 (Trypanosoma cruzi) | IC50 (Trypanosoma brucei [2]) | CC50 [3] | IC50 (Leishmania infantum) | CC20 (HepG2 [4]) | IC50 (Plasmodium falciparum [5]) | Inhibition (Plasmodium berghei) | Inhibition (Plasmodium falciparum [6]) | IC50 (Plasmodium falciparum [7]) | inhibition at 10 µM (HepG2 [8]) | IC50 (Plasmodium falciparum [9])
1 | Clc1ccc(CN2CCN(C3=NCCN3)CC2)cc1Cl | > 64000 nM | 31600 nM | 6570 nM | 30100 nM | > 64000 nM | > 64000 nM | – | – | – | – | – | – | –
2 | CNCCC(Oc1ccc(C(F)(F)F)cc1)c1ccccc1 (stereo not drawn) [FLUOXETINE] | 11400 nM | – | – | – | 16000 nM | – | 8970 nM | – | – | – | – | – | –
3 | O=C(NCCc1ccn(-c2ccccc2)n1)C1CCCCC1 | > 64000 nM | 150 nM | 730 nM | < 130 nM | > 64000 nM | > 64000 nM | – | – | – | – | – | – | –
4 | Cc1cc2ccccc2n1CC(=O)N1CC(C(=O)N2CCCCC2)Oc2ccccc21 (stereo not drawn) | – | – | – | – | – | – | 21800 nM | 1080 nM | 1% | 30% | 1050 nM | 10% | 770 nM
5 | CC1CCCCN1C(=O)NCCc1coc(-c2ccc(F)cc2)n1 (stereo not drawn) | > 64000 nM | 130 nM | 480 nM | 110 nM | > 64000 nM | > 64000 nM | – | – | – | – | – | – | –
6 | CS(=O)(=O)c1ccccc1C(=O)N(Cc1ccccc1)c1ccccc1 | > 64000 nM | 560 nM | 35400 nM | 400 nM | > 64000 nM | > 64000 nM | – | – | – | – | – | – | –
7 | O=C(Nc1cnc2ccccc2c1)c1cccc(-n2cnnn2)c1 | – | – | – | – | – | – | >80000 nM | 540 nM | 0% | 1% | 580 nM | 0% | 1880 nM
8 | CC(=O)Nc1ccc(-c2noc(CC3CCCN(Cc4cccc(F)c4C)C3)n2)cc1 (stereo not drawn) | 29400 nM | 32300 nM | 2800 nM | 25100 nM | > 64000 nM | 1590 nM | – | – | – | – | – | – | –
9 | Cc1nn2c(O)c3c(nc2c1-c1ccc(F)cc1)CCCC3 | > 64000 nM | 1940 nM | 2210 nM | 480 nM | > 64000 nM | 50400 nM | – | – | – | – | – | – | –
10 | Cc1noc(C)c1COc1cccc(C(=O)N=c2[nH]cccc2C)c1 | > 64000 nM | 2070 nM | > 64000 nM | 650 nM | > 64000 nM | > 64000 nM | – | – | – | – | – | – | –
11 | COc1ccccc1C(C)NCC(=O)Nc1cc(C(F)(F)F)ccc1Cl (stereo not drawn) | – | – | – | – | – | – | 33700 nM | 1380 nM | 55% | 1% | 1400 nM | 13% | 2820 nM
12 | Cc1cc(Nc2ccncc2)n2nc(C)c(-c3ccccc3Cl)c2n1 | – | – | – | – | – | – | 80000 nM | 630 nM | 35% | 46% | 490 nM | 3% | 690 nM
13 | COc1ccc(C2=NN(C3CCCCCC3)C(=O)[C@@H]3CC=CC[C@H]23)cc1OCCCCOc1ccc(-c2nnn[nH]2)cc1 | – | 20 nM | – | – | – | – | – | – | – | – | – | – | –
14 | CC(C(=O)N1CCCC1)N1CCN(S(=O)(=O)c2ccc(C(C)(C)C)cc2)CC1 (stereo not drawn) | – | – | – | – | – | – | >80000 nM | 900 nM | 18% | 1% | 2170 nM | 0% | 1330 nM
15 | COc1ccccc1CNC(=O)c1cc(C2CC2)nc2c1cnn2C(C)C | – | – | – | – | – | – | 11300 nM | 940 nM | 39% | 36% | 2030 nM | 5% | 1500 nM
16 | C[C@H](c1ccc2c(c1)CCCC2)N(C)c1ncc2c(N)nc(N)nc2n1 | 7100 nM | – | – | – | 8000 nM | 470 nM | – | – | – | – | – | – | –
17 | Cc1nn2c(=O)c3c([nH]c2c1-c1ccc(Cl)cc1)CCCC3 | > 64000 nM | 490 nM | 710 nM | 140 nM | 48000 nM | 44000 nM | – | – | – | – | – | – | –
18 | CN1CCN(S(=O)(=O)c2ccc(-c3ccc4c(Nc5ccc6nn[nH]c6c5)ccnc4c3)cc2)CC1 | – | – | – | – | – | – | >80000 nM | 420 nM | 0% | 8% | 800 nM | 0% | 420 nM
19 | CC1(C)Cc2c(c(N3CCOCC3)nc3snc(Br)c23)CO1 | – | – | – | – | – | – | – | 290 nM | 4% | 1% | 370 nM | 4% | 260 nM
20 | O=C(c1ccc(NCCO)cc1)C1C[C@H]1c1ccc(Cl)cc1 (stereo partly drawn) | – | – | – | – | – | – | 12800 nM | 660 nM | 44% | 20% | 2260 nM | 5% | 1630 nM
21 | NCCN(C(=O)c1ccc(Cl)cc1Cl)c1ccc(OCc2ccc(Cl)cc2)cc1 | 4000 nM | < 130 nM | 620 nM | < 130 nM | 1000 nM | 630 nM | – | – | – | – | – | – | –
22 | CC(C)C(C(=O)Nc1ccc(S(=O)(=O)N(C)C)cc1)c1ccc(Cl)cc1 (stereo not drawn) | – | – | – | – | – | – | 5350 nM | 930 nM | 66% | 31% | 790 nM | 17% | 640 nM

Row | SMILES | CC50 (MRC5) | IC50 (Trypanosoma brucei [1]) | IC50 (Trypanosoma cruzi) | IC50 (Trypanosoma brucei [2]) | CC50 [3] | IC50 (Leishmania infantum) | CC20 (HepG2 [4]) | IC50 (Plasmodium falciparum [5]) | Inhibition (Plasmodium berghei) | Inhibition (Plasmodium falciparum [6]) | IC50 (Plasmodium falciparum [7]) | inhibition at 10 µM (HepG2 [8]) | IC50 (Plasmodium falciparum [9])
23 | Cc1noc(C)c1C(=O)N1CCCC(c2[nH]c3c(C)cccc3c2-c2ccncc2)C1 (stereo not drawn) | – | – | – | – | – | – | >80000 nM | 940 nM | 52% | 42% | 620 nM | 0% | 740 nM
24 | COc1ccc(-c2cncc3ccc(C(=O)NCCCn4ccnc4)nc23)cc1 | – | – | – | – | – | – | – | 1080 nM | 98% | 71.3% | 1720 nM | 47% | 1350 nM
25 | Cc1ccc2cc(C3NC(=O)c4ccccc4N3)c(Cl)nc2c1 (stereo not drawn) | – | – | – | – | – | – | >80000 nM | 1660 nM | 37% | 0% | 990 nM | 2% | 2320 nM
26 | O=C([C@@H](c1ccc(Cl)cc1)c1cccnc1)N1CCN(c2ccc(C(F)(F)F)cc2)CC1 | – | – | 10 nM | – | – | – | 19000 nM | – | – | – | – | – | –
27 | CNC(=O)c1cc(S(=O)(=O)N2CCN(c3ccccn3)CC2)cs1 | – | – | – | – | – | – | >80000 nM | 1110 nM | 9% | 34% | 970 nM | 6% | 850 nM
28 | Cc1ccc(S(=O)(=O)Nc2ccc(CN3CCN(C(=O)c4cccc(C#N)c4)CC3)cc2)cc1 | > 64000 nM | 140 nM | 1200 nM | 120 nM | > 64000 nM | 32000 nM | – | – | – | – | – | – | –
29 | FC(F)(F)c1cnc(Sc2nnc(-c3ccncc3)o2)c(Cl)c1 | – | – | – | – | – | – | – | 270 nM | 75% | 0% | 470 nM | 28% | 200 nM
30 | COc1ccc(Cl)cc1NC(=O)CN(C)C(=O)c1cnn(-c2ccccc2)n1 | – | – | – | – | – | – | 72200 nM | 240 nM | 48% | 60% | 290 nM | 6% | 240 nM
31 | CO/C=C(/C(=O)OC)c1ccccc1Oc1cc(Oc2ccccc2C#N)ncn1 [AZOXYSTROBIN] | > 28000 nM | – | – | – | – | – | – | 50 nM | 97% | 32.5% | 30 nM | 37% | 90 nM
32 | FC(F)(F)c1ccc(N(c2cccnc2)C2CCN(c3ccc(C(F)(F)F)cn3)CC2)cc1 | – | – | 10 nM | – | – | – | 25800 nM | – | – | – | – | – | –
33 | O=S(=O)(c1ccc(Cl)cc1)N1CCN(C(=S)NCc2ccco2)CC1 | – | – | – | – | – | – | 28300 nM | 1200 nM | 23% | 32% | 1250 nM | 0% | 760 nM
34 | CC(c1cc(Cl)cc(Cl)c1)N(C)c1ncc2c(N)nc(N)nc2n1 (stereo not drawn) | 5900 nM | – | – | – | > 32000 nM | 540 nM | – | – | – | – | – | – | –
35 | Cc1nn(C)cc1C(C)Nc1nncc(-c2ccc(C(F)(F)F)cc2)n1 (stereo not drawn) | – | – | – | – | – | – | – | 120 nM | 45% | 0% | 260 nM | 19% | 200 nM
36 | COc1ccc(C2=NN(C3CCCCCC3)C(=O)C2(C)C)cc1OCCCCOc1ccc(-c2nn[nH]n2)cc1 | – | 790 nM | – | – | – | – | – | – | – | – | – | – | –
37 | COc1ccc(C2CC(c3cccs3)=NN2C(=O)c2ccco2)cc1OC (stereo not drawn) | – | – | – | – | – | – | 43100 nM | 300 nM | 26% | 1% | 850 nM | 15% | 980 nM
38 | Nc1ncc(Br)cc1-c1nc2cc(Cl)cnc2[nH]1 | – | – | – | – | – | – | – | 1500 nM | 89% | 0% | 2400 nM | 42% | 2240 nM
39 | COc1ccc(Oc2ccc([C@@H](C)N(C)c3ncc4c(N)nc(N)nc4n3)cc2)cc1 | 5400 nM | – | – | – | 4000 nM | 30 nM | – | – | – | – | – | – | –
40 | COc1cc(OC)cc(C(=O)NCC2Cc3cc(Cl)cc(-c4ccncc4)c3O2)c1 (stereo not drawn) | – | – | – | – | – | – | – | 580 nM | 52% | 12.1% | 1020 nM | 9% | 3260 nM
41 | CC(C)c1ncc(-c2ccncc2)c([C@H]2CC[C@H](CNC(=O)c3cccnc3)CC2)n1 | – | – | – | – | – | – | >80000 nM | 840 nM | 0% | 3% | 660 nM | 0% | 1000 nM
42 | Cc1cc(C)n(-c2ccc(NC(=O)C3CCN(Cc4cnc(C)s4)CC3)cc2)n1 | – | – | – | – | – | – | – | 780 nM | 38% | 0% | 1870 nM | 18% | 2460 nM
43 | CNc1cc(C)nc(C2CN(C(=O)c3n[nH]c4ccccc34)CCO2)c1 (stereo not drawn) | > 64000 nM | – | 3890 nM | – | – | – | – | – | – | – | – | – | –
44 | CC(C)NCC(=O)Nc1cccc(C(=O)Nc2cccc(C(F)(F)F)c2)c1 | – | – | – | – | – | – | 11500 nM | 350 nM | 47% | 40% | 2250 nM | 0% | 4100 nM
